This note sets out measurements from ChEMBL document CHEMBL4622888, “Modified Fusicoccane-Type Diterpenoids from Alternaria brassicicola” (J Nat Prod, 2020).

A value given as a limit tells only on which side of the number the result lay.

For orientation: IC50 means the midpoint of a concentration-inhibition curve.

One data set concerns RAW264.7. As to the kind of experiment: Antiinflammatory activity in mouse RAW264.7 cells assessed as inhibition of LPS-induced NO production measured after 18 hrs by Griess assay. The class given is functional, cell-based. To be noted: RAW264.7, 18 h. In general terms: The Griess reaction detects nitrite, a stable product of nitric oxide.
The test system of a further data set is OVCAR. As to the kind of experiment: Cytotoxicity against human OVCAR cells after 48 hrs by MTT assay. The class given is functional, cell-based.
Another data set concerns MDA-MB-231. As to the kind of experiment: Cytotoxicity against human MDA-MB-231 cells after 48 hrs by MTT assay. Particulars: MDA-MB-231, 48 h. The class given is functional, cell-based. For orientation: Tetrazolium dyes change colour on reduction, which living cells bring about.
In another data set the test system is L02. The experiment in a line: Cytotoxicity against human LO2 cells after 48 hrs by MTT assay. The class given is cell-based. To be noted: l02, 48 h.
Another data set relates to HT-29. As to the kind of experiment: Cytotoxicity against human HT-29 cells after 48 hrs by MTT assay. It is filed as functional, cell-based. To be noted: HT-29, 48 h.
The next data set deals with HeLa. As to the kind of experiment: Cytotoxicity against human HeLa cells after 48 hrs by MTT assay. It is filed as functional, cell-based.
The test system of another data set is Hep 3B2. The experiment in a line: Cytotoxicity against human Hep3B cells after 48 hrs by MTT assay. The class given is functional, cell-based.

Take `CC(C)C1=C2C[C@H](O)[C@H](C)C3=C(C(=O)CC3)[C@H](O)[C@@]2(C)CC1`: the IC50 in the data set on RAW264.7 is above 40 µM.

Take `COC[C@@]1(O)CC[C@H]2[C@@H](C)[C@@H](O)CC3=C(C(C)C)CC[C@]3(C)[C@H]3O[C@@]231`: the IC50 with OVCAR was 25 to 38.2 µM; in the data set on RAW264.7, above 40 µM; in the data set with MDA-MB-231 it was 25 to 38.2 µM; with HT-29, 25 to 38.2 µM; with HeLa it was 25 to 38.2 µM; in the data set on Hep 3B2, 25 to 38.2 µM. Also, the Activity entry in the data set with L02 is “Non-Toxic”.

`COCC1=C2[C@@H](CC1)[C@@H](C)[C@@H](O)CC1=C(C(C)C)C(=O)C[C@]1(C)[C@H]2O`: the IC50 in the data set with RAW264.7 is above 40 µM.

Consider `CC(C)C1=C2C[C@@H]3O[C@@H]([C@H]4C(=O)CC[C@H]4[C@H]3C)[C@@]2(C)[C@@H](O)C1`, for which the IC50 is 25 to 38.2 µM in the data set with OVCAR; above 40 µM in the data set on RAW264.7; 25 to 38.2 µM with MDA-MB-231; 25 to 38.2 µM in the data set on HT-29; 25 to 38.2 µM with HeLa; 25 to 38.2 µM in the data set with Hep 3B2. The Activity entry with L02 is reported as “Non-Toxic”.

Regarding `CC(C)C1=C2C[C@H](O)[C@H](C)[C@@H]3CCC(=O)/C3=C/[C@@]2(C)[C@@H](O)C1`, the IC50 with OVCAR was 25 to 38.2 µM; in the data set with RAW264.7 it was above 40 µM; with MDA-MB-231, 25 to 38.2 µM; in the data set with HT-29, 25 to 38.2 µM; in the data set with HeLa, 25 to 38.2 µM; in the data set with Hep 3B2 it was 25 to 38.2 µM. Besides, in the data set on L02, the Activity entry was “Non-Toxic”.

As to `COCC1=C2[C@@H](CC1)[C@@H](C)[C@@H](O)CC1=C(C(C)C)CC[C@]1(C)[C@H]2O`, the IC50 was 25 to 38.2 µM with OVCAR; 24.3 µM in the data set with RAW264.7; 25 to 38.2 µM in the data set on MDA-MB-231; 25 to 38.2 µM in the data set on HT-29; 25 to 38.2 µM in the data set on HeLa; 25 to 38.2 µM with Hep 3B2. In addition, the Activity entry in the data set with L02 is given as “Non-Toxic”.

In the case of `COCC1=C2C[C@@]3(C)C(=O)C=C(C(C)C)[C@]34C[C@H](O)[C@H](C)[C@@]2(CC1)O4`, the IC50 in the data set on RAW264.7 was above 40 µM.
